Laboratory results reported in patent EP0346791B1, “1,2-diarylethylamines for treatment of neurotoxic injury” (priority 1988, dated 1989).
Read-outs that look alike come from different tables or passages of the source.

Key:
[1] = tested on: Male Sprague-Dawley rats; assay: Behavioral assay (stereotyped behavior, PCP rating scale); format: in vivo; conditions: 95% confidence intervals in parenthesis; for ED50: Rattus norvegicus
Procedure: Nine compounds were tested in comparison with PCP and TCP by an in vivo assay which determined stereotypic behavior in rats treated with the compounds. Male Sprague-Dawley rats weighing 200 to 250 g were used in the behavioral experiments. Each rat was used only once. Rats were anesthetized lightly with ether before a 20-gauge needle was used to make a hole in the rat's skull for i.c.v. injection of drugs at a later date. These rats were allowed to recover for at least 1 day before being used in the behavioral assays. On the day of the experiment, rats were placed individually into plastic rat cages and allowed at least 1 hr to acclimate before testing. Drugs were administered to rats in a random, single-blind fashion.
Dose-response curves for each treatment were determined at the time of maximal behavioral effect. Peak effects were found 5 min after i.c.v. administration of PCP (25-20000 nmol/rat). […] A rating of 5 in the PCP-rating scale was considered as complete stereotyped behavior, that is, a 100% response. At least 21 rats (at least seven rats/dose) were used to determine each dose-response curve and ED₅₀ values. ED₅₀ values and dose-response curves were evaluated using a computerized Finney assay [Statistical Methods In Biological Assays, 2nd Edn., Hatner Pub. Co., New York (1964)].
The ability of the tested compounds to induce stereotyped behavior was assessed at 2.5, 5 and 10 minutes and thereafter every 5 min up to 1 hr after i.c.v., i.p., or s.c. administration.

[2] = tested on: Male Mongolian gerbils; assay: Forebrain ischemia assay (carotid occlusion, CA1 cell loss); format: in vivo; conditions: 30 mg/kg i.p. 30 minutes prior to carotid occlusion; 7 days; vs saline injected gerbils; Mann-Whitney U test p<0.01
Procedure: Male Mongolian gerbils, 50-70 gm, were used as subjects. Compound No. 1 (30 mg/kg) was injected i.p. 30 minutes prior to carotid occlusion into 6 gerbils. In preparation for surgical procedures, the animals were lightly anesthetized with methoxyflurane and placed upside down on a heated pad with their snout within a nosecone. Nitrous oxide (70%): oxygen (30%) plus 0.5% halothane was circulated through the nosecone to provide continuous anesthesia throughout the surgical procedure. A midline incision was made in the neck and the carotid arteries were exposed. A length of suture thread was placed under each carotid. The thread was then tightened around each carotid and pressure applied to the thread to insure flow was occluded. Flow was occluded for 4-5 minutes and then the thread was removed. The carotids were visually inspected to confirm that reflow had occurred. The wound was then closed with autoclips and the gerbils allowed to recover. Following surgery, the gerbils were kept alive for 7 days. They were anesthetized with 100 mg/kg sodium pentobarbital and perfused transcardially with saline (with heparin) followed by buffered formalin. The brain was removed, trimmed and prepared for histological processing. Sections (10 microns) were stained with thionin. […]

[3] = tested on: hippocampal neurons; assay: Chronic hypoxic insult assay (MTT neuronal survival); format: cell-based, Sprague-Dawley rats; conditions: for Optical Density: 6 hours anaerobic chamber, then 2 hours normal O2, MTT 570 nm, ± SEM, untreated control 0.058, hypoxia alone 0.020; for Maximum protection of neurons from hypoxic insult was obtained with: concentration giving maximum protection
Procedure: Compound Nos. 4 and 5 were tested for their ability to protect hippocampal neurons from hypoxia-induced cell death. Cultures of hippocampal neurons were prepared from embryonic day 17 Sprague-Dawley rats. The hippocampi were dissociated into a single cell suspension by incubation with 0.25% trypsin, […] DNase followed by gentle trituration through a Pasteur pipet. The cells were plated in a polylysine-coated 96-well plate and maintained in a chemically defined medium until use. The cells were grown for 2 to 3 weeks in 5% CO₂-in-air humidified environment at 36°C to establish a thick network of neuronal processes with numerous spontaneously active synapses. Exposure to hypoxic/anoxic environment was accomplished by placing the cultures in an anaerobic chamber, and flushing it with a mixture of 95% N₂+ 5% CO₂ gas to rapidly drop the O₂ tension to near zero. The O₂ tension was maintained at near zero using a disposable H₂ + CO₂ generator envelope with palladium catalyst. Compound No. 4 and Compound No. 5 were added to the culture medium prior to incubation in the anaerobic chamber and maintained there for 6 hours. Following 2 hours of exposure to normal O₂ tension, the cultures were processed for morphological and quantitive biochemical neuronal cell viability assays.
The neuronal survival assay utilized the compound MTT [(3-(4,5-dimethylthiazol-2-yl)-2,5-diphenyl tetrazolium bromide)], a pale yellow substrate that is cleaved by the mitochondrial enzyme succinate-dehydrogenase to yield a dark blue formazan product. This process requires active mitochondria, present only in live cells. Cultures of hippocampal neurons grown in 96-well plates were incubated with 1 mg/ml MTT at 36°C in a 10% CO₂-in-air incubator for 30-60 min. At the end of the incubation, a dark blue precipitate outlined only viable cells. The precipitate was then solubilized using 0.08 N HCl/isopropanol mixture and the absorbance measured with an ELISA plate reader (Dynatech MR600) using a test wavelength of 570 nm and a reference wavelength of 630 nm. The resulting optical density is directly proportional to the number of viable cells.

[4] = target: PCP receptors; format: binding; conditions: 1 nM 3H-TCP, whole rat brain membranes, 1 hour incubation; value ± SEM; read-out: Ki apparent
[5] = tested on: hippocampal neurons; assay: Acute azide toxicity assay (MTT neuronal survival); format: cell-based, Sprague-Dawley rats; conditions: 10 µM sodium azide for 1 hour
[6] = ip, read-out: Stereotyped Behavior ED₅₀ i.p.
[7] = sc, read-out: Stereotyped Behavior ED₅₀ s.c.

c1ccc(CC(c2ccccc2)N2CCCCC2)cc1 (racemic) [Compound No. 1]
ED50 [1, 6]: 2 mg/kg | ED50 [1, 7]: 2.9 mg/kg | cell loss in CA1 [2]: significantly reduced

c1ccc(CC(c2cccs2)N2CCCCC2)cc1 (racemic) [Compound No. 5]
Optical Density ([3]; Hypoxia + 10 µM compound): 0.047 ± 0.01 | Maximum protection of neurons from hypoxic insult was obtained with [3]: 10 µM | ED50 [1, 7]: 3.5 mg/kg

C1=CCN(C(Cc2ccccc2)c2ccccc2)CC1 (racemic) [Compound No. 6]
Stereotyped Behavior ED₅₀ i.c.v. [1]: 100(81-120) nmoles/rat

CC(C)C(c1ccccc1)C(c1ccccc1)N1CCCCC1 (racemic) [Compound No. 12]
ED50 [1, 7]: > 50 mg/kg

OC(c1ccccc1)C(c1ccccc1)N1CCCCC1 (racemic) [Compound No. 13]
ED50 [1, 7]: 11 mg/kg

C1=CCN(C(Cc2ccccc2)c2cccs2)CC1 (racemic) [Compound No. 15]
ED50 [1, 7]: 1.7 mg/kg

c1ccc(CC(c2ccccc2)N2CCCC2)cc1 (racemic) [Compound No. 20]
Ki [4]: 16 ± 2.6 µM | ED50 [1, 7]: 7.8 mg/kg

Cc1ccc(C(Cc2ccccc2)N2CCCCC2)cc1 (racemic) [Compound No. 21]
Ki [4]: 1.8 ± 0.3 µM

COc1ccc(C(Cc2ccccc2)N2CCCCC2)cc1 (racemic) [Compound No. 22]
Ki [4]: 8.1 ± 0.5 µM

c1ccc(C(N2CCCCC2)C2(c3ccccc3)CC2)cc1 (racemic) [Compound No. 23]
Ki [4]: > 30 µM

CC1CC(C)CN(C(Cc2ccccc2)c2ccccc2)C1 (racemic) [Compound No. 24]
Ki [4]: 0.85 ± 0.04 µM

CC(C)(c1ccccc1)C(c1cccs1)N1CCCCC1 (racemic) [Compound No. 25]
Ki [4]: > 30 µM

COc1cccc(C(Cc2ccccc2)N2CCCCC2)c1 (racemic) [Compound No. 26]
Ki [4]: 0.1 ± 0.02 µM

Fc1ccc(C(Cc2ccccc2)N2CCCCC2)cc1 (racemic) [Compound No. 27]
Ki [4]: 0.22 ± 0.01 µM

CC(C)(c1ccccc1)C(c1ccccc1)N1CCCCC1 (racemic) [Compound No. 28]
Ki [4]: 12 ± 1 µM

Cc1cccc(C(Cc2ccccc2)N2CCCCC2)c1 (racemic) [Compound No. 29]
Ki [4]: 0.11 ± 0.03 µM

c1ccc(CC(c2ccco2)N2CCCCC2)cc1 (racemic) [Compound No. 30]
Ki [4]: 0.4 ± 0.01 µM

Clc1ccccc1C(Cc1ccccc1)N1CCCCC1 (racemic) [Compound No. 31]
Ki [4]: 0.00019 ± 0.00011 µM

COc1ccccc1C(Cc1ccccc1)N1CCCCC1 (racemic) [Compound No. 32]
Ki [4]: 0.17 ± 0.01 µM

c1ccc(CC(c2cccc3ccccc23)N2CCCCC2)cc1 (racemic) [Compound No. 33]
Ki [4]: 6 ± 1.7 µM

c1ccc(CC(c2ccccc2)N2CCCCC2)cc1 (single isomer, unassigned) [Compound No. 3]
Stereotyped Behavior ED₅₀ s.c. [1]: >40 mg/kg

c1ccc(CC(c2ccccc2)N2CCCCC2)cc1 (single isomer, unassigned) [Compound No. 4]
Optical Density ([3]; Hypoxia + 1 µM compound): 0.046 ± 0.01 | Maximum protection of neurons from hypoxic insult was obtained with [3]: 1 µM | protection of neurons from sodium azide toxicity ([5]; 100 µM compound): significant protection | Optical Density ([5]; Sodium azide + 100 µM compound, MTT, ± SEM, control 0.123, sodium azide alone 0.075): 0.133 ± 0.01 | ED50 [1, 6]: 2.1 mg/kg | Stereotyped Behavior ED₅₀ i.c.v. [1]: 120(100-140) nmoles/rat | Stereotyped Behavior ED₅₀ s.c. [1]: 0.78(0.60-1.0) mg/kg

c1ccc(C2(N3CCCCC3)CCCCC2)cc1 [PCP, Phencyclidine, reference compound]
Stereotyped Behavior ED₅₀ i.c.v. [1]: 150(120-170) nmoles/rat
